Read-outs that look alike come from different tables or passages of the source.
Target: T1, mouse TMEM16A mutant T539A (Mus musculus, UniProt Q8BHY3, T539A)
T1 construct: expressed in transfected cells; host or cells: HEK293T
T1 sequence (Q8BHY3 1-960 T539A): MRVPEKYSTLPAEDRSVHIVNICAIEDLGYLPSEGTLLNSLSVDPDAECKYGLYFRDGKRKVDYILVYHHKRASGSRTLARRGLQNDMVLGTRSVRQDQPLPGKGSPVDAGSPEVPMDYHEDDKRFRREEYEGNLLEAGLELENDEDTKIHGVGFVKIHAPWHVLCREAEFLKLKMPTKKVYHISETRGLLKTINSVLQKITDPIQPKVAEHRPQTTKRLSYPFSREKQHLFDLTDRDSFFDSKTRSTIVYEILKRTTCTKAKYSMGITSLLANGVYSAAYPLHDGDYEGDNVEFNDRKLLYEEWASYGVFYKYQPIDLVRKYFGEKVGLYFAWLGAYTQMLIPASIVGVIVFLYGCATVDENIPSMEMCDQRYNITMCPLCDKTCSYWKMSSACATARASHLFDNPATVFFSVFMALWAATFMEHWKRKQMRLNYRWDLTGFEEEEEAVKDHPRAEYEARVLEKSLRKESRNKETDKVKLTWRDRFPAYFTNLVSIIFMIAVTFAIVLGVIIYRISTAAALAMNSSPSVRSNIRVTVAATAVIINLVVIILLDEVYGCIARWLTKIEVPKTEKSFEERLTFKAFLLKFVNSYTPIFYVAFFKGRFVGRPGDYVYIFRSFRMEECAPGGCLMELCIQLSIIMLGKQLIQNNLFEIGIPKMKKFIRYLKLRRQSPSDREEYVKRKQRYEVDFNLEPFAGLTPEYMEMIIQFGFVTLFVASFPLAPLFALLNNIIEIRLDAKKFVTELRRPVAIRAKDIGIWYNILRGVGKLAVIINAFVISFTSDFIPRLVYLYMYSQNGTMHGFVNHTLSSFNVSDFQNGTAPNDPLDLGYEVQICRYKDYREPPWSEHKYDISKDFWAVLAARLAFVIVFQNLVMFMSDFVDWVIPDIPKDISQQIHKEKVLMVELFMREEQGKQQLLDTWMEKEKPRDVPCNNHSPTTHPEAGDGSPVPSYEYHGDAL
Assay: Inside-out patch recording of 1PBC block, mutant T539A
Assay type: cell-based
Settings: for remaining activity at 100 µM: 100 µM 1PBC
Protocol: HEK293T cells (ATCC CRL-1573) were maintained in Dulbecco’s modified Eagle’s medium (DMEM; Sigma-Aldrich) supplemented with 10 U ml^−1 penicillin, 0.1 mg ml^−1 streptomycin (Sigma-Aldrich), 2 mM L-glutamine (Sigma-Aldrich), and 10% FBS (Sigma-Aldrich) in a humidified atmosphere containing 5% CO2 at 37 °C. HEK293S GnTI^− cells (ATCC CRL-3022) were maintained in HyClone HyCell TransFx-H medium (GE Healthcare) supplemented with 10 U ml^−1 penicillin, 0.1 mg ml^−1 streptomycin, 4 mM L-glutamine, 0.15% poloxamer 188 (Sigma-Aldrich), and 1% FBS in an atmosphere containing 5% CO2 at 185 rpm at 37 °C. The ac splice variant of mouse TMEM16A (UniProt ID: Q8BHY3), mouse TMEM16B (UniProt ID: Q8CFW1), or mouse TMEM16F (UniProt ID: Q6P9J9) bearing a 3C cleavage site, a Venus YFP, a Myc tag, and a Streptavidin-binding peptide (SBP) downstream of the open reading frame in a modified pcDNA3.1 vector (Invitrogen) were used as described previously[21],[31]. Mutations were introduced using a modified QuikChange method[58] and were verified by sequencing.
HEK293T cells were transfected with 3–4 μg DNA per 6 cm Petri dish using the calcium phosphate co-precipitation method and were used within 24–96 h after transfection. Recordings were performed on inside-out patches excised from HEK293T cells expressing the construct of interest. Patch pipettes were pulled from borosilicate glass capillaries (O.D. 1.5 mm, I.D. 0.86 mm, Sutter Instrument) and were fire-polished with a microforge (Narishige) before use. Pipette resistance was typically 3–8 MΩ when filled with the recording solutions detailed below. Seal resistance was typically 4 GΩ or higher. Voltage-clamp recordings were made using Axopatch 200B, Digidata 1550, and Clampex 10.7 (Molecular Devices). Analog signals were filtered with the in-built 4-pole Bessel filter at 10 kHz and were digitized at 20 kHz. Solution exchange was achieved using a gravity-fed system through a theta glass pipette mounted on an ultra-fast piezo-driven stepper (Siskiyou). […] All recordings were performed at 20 °C.
A symmetrical ionic condition was used throughout. Stock solution with Ca^2+-EGTA contained 150 mM NaCl, 5.99 mM Ca(OH)2, 5 mM EGTA, and 10 mM HEPES at pH 7.40. Stock solution with EGTA contained 150 mM NaCl, 5 mM EGTA, and 10 mM HEPES at pH 7.40. Free Ca^2+ concentrations were adjusted by mixing the stock solutions at the required ratios calculated using the WEBMAXC program (http://web.stanford.edu/~cpatton/webmaxcS.htm). Patch pipettes were filled with the stock solution with Ca^2+-EGTA, which has a free Ca^2+ concentration of 1 mM. 1PBC (ChemBridge) stock was reconstituted in anhydrous DMSO (Sigma-Aldrich) at 100 mM and stored at −20 °C. Working solutions with 1PBC were prepared by serial dilution. Unless otherwise stated, experiments were performed at a saturating Ca^2+ concentration as shown in Supplementary Table 1 and the primary data were corrected for current rundown as described previously[21],[25].
Concentration-response relations, obtained from the ratio of the I-V plots before and after the application of the blocker, were fitted to the Hill equation,1 I/Imax=1/1+IC50/[blocker]^h where I/Imax is the normalized current responses, IC50 defines the concentration at which inhibition is at its half-maximum, and h is the Hill coefficient.

IC50 (0 mV, 2 µM Ca2+): 14.9 µM
remaining activity at 3 µM (3 µM 1PBC, +80 mV, saturating Ca2+ (2 µM), read-out: I/Imax): 77.1%
remaining activity at 3 µM (3 µM 1PBC, -80 mV, saturating Ca2+ (2 µM), read-out: I/Imax): 91.4%
remaining activity at 10 µM (10 µM 1PBC, +80 mV, saturating Ca2+ (2 µM), read-out: I/Imax): 45.4%
remaining activity at 10 µM (10 µM 1PBC, -80 mV, saturating Ca2+ (2 µM), read-out: I/Imax): 71.2%
remaining activity at 30 µM (30 µM 1PBC, +80 mV, saturating Ca2+ (2 µM), read-out: I/Imax): 23.5%
remaining activity at 30 µM (30 µM 1PBC, -80 mV, saturating Ca2+ (2 µM), read-out: I/Imax): 49.4%
remaining activity at 100 µM (+80 mV, saturating Ca2+ (2 µM), read-out: I/Imax): 8.95%
remaining activity at 100 µM (-80 mV, saturating Ca2+ (2 µM), read-out: I/Imax): 25%
remaining activity at 3 µM (1PBC 3, 0 mV, read-out: fraction of unblocked current): 85.3%
remaining activity at 3 µM (1PBC 3, 20 mV, read-out: fraction of unblocked current): 83.3%
remaining activity at 3 µM (1PBC 3, 40 mV, read-out: fraction of unblocked current): 80.1%
remaining activity at 3 µM (1PBC 3, 60 mV, read-out: fraction of unblocked current): 78.3%
remaining activity at 3 µM (1PBC 3, 80 mV, read-out: fraction of unblocked current): 77.1%
remaining activity at 3 µM (1PBC 3, 100 mV, read-out: fraction of unblocked current): 77.2%
remaining activity at 3 µM (1PBC 3, 120 mV, read-out: fraction of unblocked current): 77.7%
remaining activity at 3 µM (1PBC 3, 140 mV, read-out: fraction of unblocked current): 79.8%
remaining activity at 3 µM (1PBC 3, -20 mV, read-out: fraction of unblocked current): 87.2%
remaining activity at 3 µM (1PBC 3, -40 mV, read-out: fraction of unblocked current): 88.4%
remaining activity at 3 µM (1PBC 3, -60 mV, read-out: fraction of unblocked current): 90%
remaining activity at 3 µM (1PBC 3, -80 mV, read-out: fraction of unblocked current): 91.4%
remaining activity at 3 µM (1PBC 3, -100 mV, read-out: fraction of unblocked current): 92.2%
remaining activity at 3 µM (1PBC 3, -120 mV, read-out: fraction of unblocked current): 93.2%
remaining activity at 3 µM (1PBC 3, -140 mV, read-out: fraction of unblocked current): 93.5%
remaining activity at 10 µM (1PBC 10, 0 mV, read-out: fraction of unblocked current): 56.5%
remaining activity at 10 µM (1PBC 10, 20 mV, read-out: fraction of unblocked current): 53.9%
remaining activity at 10 µM (1PBC 10, 40 mV, read-out: fraction of unblocked current): 50.2%
remaining activity at 10 µM (1PBC 10, 60 mV, read-out: fraction of unblocked current): 47.6%
remaining activity at 10 µM (1PBC 10, 80 mV, read-out: fraction of unblocked current): 45.4%
remaining activity at 10 µM (1PBC 10, 100 mV, read-out: fraction of unblocked current): 44.7%
remaining activity at 10 µM (1PBC 10, 120 mV, read-out: fraction of unblocked current): 45.3%
remaining activity at 10 µM (1PBC 10, 140 mV, read-out: fraction of unblocked current): 47%
remaining activity at 10 µM (1PBC 10, -20 mV, read-out: fraction of unblocked current): 59.1%
remaining activity at 10 µM (1PBC 10, -40 mV, read-out: fraction of unblocked current): 63.7%
remaining activity at 10 µM (1PBC 10, -60 mV, read-out: fraction of unblocked current): 67.6%
remaining activity at 10 µM (1PBC 10, -80 mV, read-out: fraction of unblocked current): 71.2%
remaining activity at 10 µM (1PBC 10, -100 mV, read-out: fraction of unblocked current): 73.9%
remaining activity at 10 µM (1PBC 10, -120 mV, read-out: fraction of unblocked current): 76.5%
remaining activity at 10 µM (1PBC 10, -140 mV, read-out: fraction of unblocked current): 78.6%
remaining activity at 30 µM (1PBC 30, 0 mV, read-out: fraction of unblocked current): 34.9%
remaining activity at 30 µM (1PBC 30, 20 mV, read-out: fraction of unblocked current): 31%
remaining activity at 30 µM (1PBC 30, 40 mV, read-out: fraction of unblocked current): 27.7%
remaining activity at 30 µM (1PBC 30, 60 mV, read-out: fraction of unblocked current): 25.4%
remaining activity at 30 µM (1PBC 30, 80 mV, read-out: fraction of unblocked current): 23.5%
remaining activity at 30 µM (1PBC 30, 100 mV, read-out: fraction of unblocked current): 22.5%
remaining activity at 30 µM (1PBC 30, 120 mV, read-out: fraction of unblocked current): 21.8%
remaining activity at 30 µM (1PBC 30, 140 mV, read-out: fraction of unblocked current): 22.4%
remaining activity at 30 µM (1PBC 30, -20 mV, read-out: fraction of unblocked current): 38.8%
remaining activity at 30 µM (1PBC 30, -40 mV, read-out: fraction of unblocked current): 42.4%
SMILES: N#Cc1c(C(F)(F)F)cc(O)n2c1nc1ccccc12 [1PBC]
